Test results from patent US11832638B2, “N-acyl derivatives of gamma amino-butyric acid and beta alanine as food flavouring compounds” (GIVAUDAN SA, priority 2012, dated 2023).

What was measured:
[1] = Test in pineapple flavoured drink; settings: 1 ppm, water, 8% sugar, 0.1% citric acid, pineapple flavour 0.03%
From the text: Test in Pineapple Flavoured Drink:
Base is water, 8% sugar, 0.1% citric acid and proprietary pineapple flavour at 0.03%

[2] = Tasting in spreadable cheese ERU; settings: 0.5 PPM in spreadable cheese ERU
Experimental: (§1) The following formulations were prepared and tasted by trained panelists.

[3] = Tasting in soy based product (salt reduced kikoman soy sauce)
Experimental: as §1
Salt level pure product between 5-40%
Salt level in application 0.3-1.0%
C18:2-gaba-(0.5 ppm) was added to a 1% diluted salt reduced kikoman soy sauce (9% salt).
C18:2-gaba-(0.5 ppm) was added to pure salt reduced kikoman soy sauce (9% salt).

[4] = UHT sweetened banana flavoured milk, different fat levels; settings: banana flavour 0.04%
Experimental: UHT Sweetened Banana Flavoured Milk, With Different Fat Levels
In a UHT milk with 0% and 3% fat sweetened with 4% sucrose by weight, flavoured with proprietary banana flavour dosed at 0.04%. C18:2 gaba was added at 0.25 ppm, 0.5 ppm and 1 ppm.
(§2) Samples were evaluated by expert tasters. Tasters were asked to describe the samples focusing on authentic taste, mouthfeel, fullness, salivation, sweetness, juiciness, richness, long lastingness and fattiness.

[5] = Test on organic acids in a beverage; settings: 1 ppm, water, 7% sucrose
Experimental: Testing With Beverages Containing Organic Acids From 0.01% to 7%
Test 18:2 Gaba on Organic Acids in a Beverage.
In a solution containing water, 7% sucrose by weight, and different organic acids, C18:2-gaba was added at 1 ppm. We observed taste effects on the acid perception upon addition of C18:2-gaba.
Base is water, 7% Sucrose by weight, Tartaric acid at 0.121% by weight
Base is water, 7% Sucrose by weight, Malic acid at 0.1081% by weight
Base is water, 7% Sucrose by weight, Citric acid at 0.1% by weight
Base is water, 7% Sucrose by weight, Fumaric acid at 0.0936% by weight

[6] = Test in chocolate flavoured drink; settings: 2 ppm, water, 4% sucrose, chocolate flavour 0.03%
From the text: Test in Chocolate Flavoured Drink:
Base: Water, 4% sucrose, proprietary chocolate flavour at 0.03%

[7] = Vanilla flavoured milk 3.0% fat; settings: 2 ppm, 4% sugar, vanillin 10 ppm, vanilla extract 0.03%
Experimental: Vanilla Flavoured Milk 3.0% Fat
In a 3% fat milk drink, sweetened with 4% sucrose by weight, flavoured with Vaniline @ 10 ppm and a Vanilla extract @ 0.03% C18:2-gaba, was added at 0.5 or 2 ppm.
as §2
Base: Milk 3% fat, 4% sugar, vanillin 10 ppm, vanilla extract 0.03%

[8] = Test on Eru Prestige; settings: 0.5 ppm
[9] = Test in pear flavoured drink; settings: 1 ppm, water, 7% sugar, 0.1% citric acid, pear flavour 0.025%
From the text: Test in Pear Flavoured Drink:
Base: water, 7% sugar, 0.1% citric acid, proprietary pear flavour at 0.025%

[10] = Tasting in low fat salad dressing; settings: 0.5 PPM in low fat salad dressing (13.6% fat)
Experimental: as §1
low fat salad dressing (13.6% Fat)

[11] = Test in a strawberry yoghurt; settings: 2 ppm, 1.5% fat yoghurt, 8% sucrose, strawberry flavour 0.015%
From the text: Test in a Strawberry Yoghurt
Base: Yoghurt 1.5% fat yoghurt, 8% sucrose, proprietary strawberry flavour @ 0.015%

[12] = Tasting in butter (Blueband halvarine); settings: 1 ppm in Blueband halvarine 39% fat 0.35% salt
Experimental: as §1
Blueband “halvarine” 39% fat 0.35% salt
C18:2-gaba added at 1 ppm.

[13] = Activa strawberry yoghurt; settings: 2 ppm, full fat Activa strawberry flavoured yoghurt
From the text: Activa Strawberry Yoghurt
In a Full fat, Activa strawberry flavoured yoghurt C18:2-gaba

[14] = Tasting in pilaf (cooked rice with flavoured butter); settings: standard cooked rice with 10% of the C18:2-gaba flavoured butter
Experimental: as §1

[15] = Test on Heineken beer; settings: 0.5 ppm
Experimental: In Heineken beer (Market Product) C18:2-gaba was added at 0.5 ppm.
Samples were evaluated by expert tasters. Tasters were asked to describe the samples focusing on authentic taste, alcohol impact, malt taste, hop taste, mouthfeel, fullness, salivation, sweetness, bitterness, richness, long lastingness and fattiness.

[16] = Test in vanilla milk; settings: 2 ppm, milk 0.15% fat, 4% sucrose, Vaniline flavour 10 ppm + vanilla ext. 0.03%
From the text: Base: Milk 0.15% fat, sweetened with 4% sucrose by weight, flavoured with proprietary
Vaniline flavour @ 10 ppm+Vanilla ext. @ 0.03%

[17] = Comparison in beef bouillon; settings: 2 ppm, Maggi beef bouillon 1 tablet in 500 ml hot water
Experimental: Comparison in Beef Bouillon
Base is Maggi beef bouillon 1 tablet in 500 ml of hot water

[18] = Test on Kikkoman soy sauce low salt; settings: 0.5 ppm
From the text: Test on Kikkoman Soy Sauce Low Salt
Base is Kikkoman soy sauce

[19] = Yoghurt cream flavoured non-sweetened, different fat levels; settings: 2 ppm, cream flavour 0.03%
Experimental: Yoghurt Cream Flavoured Non-sweetened And Different Fat Levels
In a Yoghurt containing 0% 1.5% and 3% fat, flavoured with proprietary cream flavour dosed at 0.03%, C18:2-gaba was added at 2 ppm. Samples were evaluated by expert tasters. Tasters were asked to describe the samples focusing on authentic taste, mouthfeel, fullness, salivation, sweetness, juiciness, richness, long lastingness and fattiness.

[20] = Test in 3 in 1 coffee; settings: 1 ppm, 3-in-1 coffee beverage with sucrose and creamer with fat
Experimental: In a 3 in 1 Coffee beverage from Nestle (market product) sweetened with sucrose and containing creamer with fat C18:2-gaba was added.
as §2
Base is 3-in-1 Coffee beverage (market product) sweetened with sucrose and containing creamer with fat

[21] = Test on menthol fondant (1%); settings: 2 ppm, fondant 65%, sugar syrup 34%, menthol flavour 1%
From the text: Test on Menthol Fondant (1%)
Base is Fondant 65%, sugar syrup 34% and a proprietary menthol flavour at 1%

SMILES: CCCCC/C=C\C/C=C\CCCCCCCC(=O)NCCCC(=O)O [C18:2-gaba]
- taste description [1]: very ripe, jammy, long lasting and sweet
- tasting result (trained panelists) [2]: Full, Salty, cheese bite, more mature
- tasting result (trained panelists) ([3]; 0.5 ppm in 1% diluted salt reduced kikoman soy sauce (9% salt)): stronger, more umami, long lasting, richer
- tasting result (trained panelists) ([3]; 0.5 ppm in pure salt reduced kikoman soy sauce (9% salt)): strong in body and mouthfeel,and more salty
- description by expert tasters ([4]; 0.25 ppm, UHT milk 0% fat): fuller banana, more authentic, more sweet
- description by expert tasters ([4]; 0.25 ppm, UHT milk 3% fat): more authentic, less estery and more round
- description by expert tasters ([4]; 0.5 ppm, UHT milk 0% fat): fuller banana, authentic, creamy and sweet
- description by expert tasters ([4]; 0.5 ppm, UHT milk 3% fat): creamy banana
- description by expert tasters ([4]; 1 ppm, UHT milk 0% fat): creamy, creamy banana, sweet aftertaste
- description by expert tasters ([4]; 1 ppm, UHT milk 3% fat): creamy long lasting and more authentic and more impact
- taste effects on the acid perception ([5]; citric acid 0.1% by weight): decreased sharp acidic perception, full body mouthfeel, higher higher mouth watering, and an impression of the juicy notes of citrus fruit (orange, lemon)
- taste effects on the acid perception ([5]; fumaric acid 0.0936% by weight): decreased sharp acidic perception, full body mouthfeel effects, higher sweet effects, and an impression of the full notes characteristic of sweet red & vanillic flavor types (vanilla, chocolate, raspberry, cherry, especially benzaldhyde)
- taste effects on the acid perception ([5]; malic acid 0.1081% by weight): decreased sharp acidic perception, give fuller body, mouthfeel, higher mouthwatering, and an impression of the flesh and skin notes of fruit (apple)
- taste effects on the acid perception ([5]; tartaric acid 0.121% by weight): decreased sharp acidic perception, full body mouthfeel, higher mouthwatering, more immediate (upfront hit), and an impression of the flesh of fruit (grape, apple, banana, pear-like)
- taste description [6]: full, sweeter, more vanillic, milk chocolate is enhanced, very long lasting
- description by expert tasters [7]: beany, fatty, authentic, sweet
- taste description [8]: full salty, much more cheese bite, umami, lingering, long lasting
- taste description [9]: long lasting, juicy and fatty skin like very authentic, like eating the fruit instead of drinking a drink
- tasting result (trained panelists) [10]: better mouthfeel that was impressively creamy
- taste description [11]: creamy, fruity authentic strawberry , stronger strawberry, ripe, long lasting, juicy
- tasting result (trained panelists) [12]: more authentic butter taste, with more mouthfeel
- taste description [13]: very creamy, full and fresh strawberry
- tasting result (trained panelists) [14]: more mouthfeel, with a lingering creamy authentic butter taste
- description by expert tasters [15]: more hoppy, more bitter, more malt and stronger alcohol impact
- taste description [16]: fatty, long lasting authentic vanilla, vanilla bean taste is enhanced
- taste description [17]: salty, savoury, full
- taste description [18]: much more salty, sweet and long lasting
- description by expert tasters ([19]; yoghurt 0% fat): less acdic, slight creamy aftertaste
- description by expert tasters ([19]; yoghurt 1.5% fat): very creamy, thick, nice long lasting, whipped cream note
- description by expert tasters ([19]; yoghurt 3% fat): less acidic, much more creamy, very long lasting creamy aftertaste
- description by expert tasters [20]: very nice mouthfeel effect, creamy as if coffee creamer is added, more sweet
- taste description [21]: increased menthol impact, stronger cooling more sweet, long lasting, fresh
